Broadly, the solubility is how much of the substance goes into solution per volume.

The values that follow come from patent US20240336556A1, “R-KETAMINE SALTS AND METHODS OF USE THEREOF” (Perception Neuroscience, Inc., priority 2021, published 2024).

A short description of series [1]: Dynamic vapor sorption (DVS) and classification of hygroscopicity. Type of series: physicochemical. Conditions: for reversibility of water sorption: under the test conditions; for solid form of the sample after DVS: PXRD or FT-Raman on solid recovered after the DVS test. Here is the method:
DVS measurements were performed with an SPS11-100n “Sorptions Prüfsystem” from ProUmid (formerly “Projekt Messtechnik”), August-Nagel-Str. 23, 89079 Ulm (Germany). About 5-20 mg of sample were put into an aluminum sample pan. Humidity change rates of […] were used. The applied measurement program is described as follows:
The sample was placed on an aluminum or platinum holder on top of a microbalance and allowed to equilibrate at 50% RH before starting the pre-defined humidity programs: • (1) 2 h at 50% RH • (2) 50→0% RH (5%/h); 5 h at 0% RH • (3) 0→95% RH (5%/h); 5 h at 95% RH • (4) 95→0% RH (5%/h); 5 h at 0% RH • (5) 0→95% RH (5%/h); 5 h at 95% RH • (6) 95→50% RH (5%/h); 2 h at 50% RH
The hygroscopicity was classified based on the mass gain at 85% RH relative to the initial mass as follows: deliquescent (sufficient water adsorbed to form a liquid), very hygroscopic (mass increase of ≥15%), hygroscopic (mass increase <15% but ≥2%), slightly hygroscopic (mass increase <2% but ≥0.2%), or non-hygroscopic (mass increase <0.2%).

The nature of series [2]: Storage in a closed vial at ambient conditions, reanalysis by PXRD. Format: physicochemical. Here is the method:
Stoe Stadi P equipped with a Mythen1K Detector; Cu-Kα1 radiation; standard measurement conditions: transmission; 40 kV and 40 mA tube power; curved Ge monochromator; 0.02°2θ step size, 48 s step time, 1.5-50.5°2θ scanning range; detector mode: step scan; 1 °2θ detector step; standard sample preparation: 10 to 20 mg sample was placed between two acetate foils; sample holder: Stoe transmission sample holder; the sample was rotated during the measurement. All sample preparation and measurement was done in an ambient air atmosphere.

For series [3] the following is noted: water, at 23° C.
Series [4] can be described thus: Approximate solubility in 20% (w/w) aqueous (2-Hydroxypropyl)-Beta-cyclodextrin solution and in 20% (w/w) cyclodextrin in buffer pH 7, with pH of the solutions. Conditions: for Approximate Solubility: ambient conditions, visual estimate. Here is the method:
These values were determined by adding small aliquots of solvent or solvent mixture to ˜10 mg of solid and shaking/sonicating for a short period of time at ambient conditions. The solubilities were estimated by visual observations. These values are only approximations. Table 20 summarized the obtained solubility values, and the pH of the resulting solutions.

Series [5] can be described thus: Approximate solubility determination (small aliquots of solvent added to ~10 mg of solid, ambient conditions). Type of series: physicochemical. Particulars: thermodynamic from solid, approximation. Here is the method:
Approximate solubilities were determined for the R-ketamine free base. […] These values are only approximations.

Series [6] is described as follows: Precise solubility tests of R-ketamine fumarate salt Form A in aqueous media at adjusted pH (HPLC). Particulars: for solubility: aqueous, equilibrated one day, HPLC.
Series [7] in a line: HPLC precise solubility determination of R-ketamine salts in water at 25° C., with pH of the saturated solution. Particulars: for Initial pH / pH after 24 hours: saturated solution in water, pH determined at 24° C.; for solubility / solubility in water: 25° C.; for solubility: equilibrated one day, HPLC of the saturated solution, values marked * may be underestimated; for solubility in water: one day equilibration, HPLC. How it is done: 50 mg of R-ketamine saccharin salt was suspended in 0.5 mL of water, and the suspension was equilibrated (700 rpm) at 25° C. for one day. 10 to 15 mg of R-ketamine fumarate salt and R-ketamine oxalate salt were also equilibrated in 0.5 mL of water at 25° C. for one day.

The mark [8] stands for this setting: DVS, above 70% relative humidity.
Setting [9] is: obtained solution in 20% (w/w) aqueous cyclodextrin, measured at 24° C.
[10] abbreviates: obtained solution in 20% (w/w) cyclodextrin in buffer pH 7, measured at 24° C.

The structures appear in SMILES notation. ≈ marks a conversion by molar mass, not a printed value. Read-outs that look alike come from different tables or passages of the source.

As for `CN[C@@]1(c2ccccc2Cl)CCCCC1=O.O=C(O)C(O)C(O)C(=O)O` [R-ketamine D-tartrate salt Form A], in series [1] (setting [8]), the additional water uptake entry is reported as “about 3%”. Besides, the “reversibility of water sorption” value in series [1] (DVS) is on record as “irreversible”. For the same compound, the “solid form after storage (PXRD)” value in series [2] (13 months, ambient conditions) was “corresponding to R-ketamine D-tartrate salt Form A”.
Turning to `CN[C@@]1(c2ccccc2Cl)CCCCC1=O.O=C(O)C(O)C(O)C(=O)O` [R-ketamine D-tartrate salt Form B], in series [1] (setting [8]), the water content reached result is given as “about 8.5%”. For the same compound, in series [1] (DVS), the “reversibility of water sorption” value is reported as “irreversible”. In addition, the “solid form after storage (PXRD)” value in series [2] (12 months, ambient conditions) is “corresponding to R-ketamine D-tartrate salt Form B”.
For the compound `CN[C@@]1(c2ccccc2Cl)CCCCC1=O.O=C(O)C(O)C(O)C(=O)O` [R-ketamine D-tartrate salt Form C], the “pH of the suspension” value in series [3] (after 24 hours of stirring) is reported as 3.42; in series [3] (after one hour), 3.48. In addition, the water content reached entry in series [1] (setting [8]) was “about 8.3%”. Further, in series [1] (DVS), the “reversibility of water sorption” value is reported as “irreversible”.
Take `CN[C@@]1(c2ccccc2Cl)CCCCC1=O.O=C(O)C(O)C(O)C(=O)O` [R-ketamine D-tartrate salt Form D]: the additional water absorbed result in series [1] (DVS, at high relative humidity) is reported as “About 0.4%”.
As to `CN[C@@]1(c2ccccc2Cl)CCCCC1=O` [R-ketamine free base, (2R)-2-(2-chlorophenyl)-2-(methylamino)cyclohexan-1-one], the solubility in series [4] (20% (w/w) (2-hydroxypropyl)-beta-cyclodextrin in buffer pH 7, pH 7, aqueous with cosolvent or surfactant or cyclodextrin, thermodynamic from solid) is 2 to 2.5 mg/mL (≈ 8.41 to 10.5 mM); in series [4] (aqueous with cosolvent or surfactant or cyclodextrin, thermodynamic from solid), 1.5 to 1.7 mg/mL (≈ 6.31 to 7.15 mM); in series [5] (aqueous with cosolvent or surfactant or cyclodextrin, 20% (2-hydroxypropyl)-beta-cyclodextrin in water) it was 1.4 to 1.7 mg/mL (≈ 5.89 to 7.15 mM); in series [5] (organic solvent or mixture, 1-propanol), 60 to 79 mg/mL (≈ 252 to 332 mM); in series [5] (organic solvent or mixture, 2-propanol), 37 to 44 mg/mL (≈ 156 to 185 mM); in series [5] (organic solvent or mixture, Acetone) it was 111 to 222 mg/mL (≈ 467 to 934 mM). The solubility was 89 to 133 mg/mL (≈ 374 to 559 mM) in series [5] (organic solvent or mixture, Acetonitrile); 62 to 83 mg/mL (≈ 261 to 349 mM) in series [5] (organic solvent or mixture, Ethanol); 115 to 230 mg/mL (≈ 484 to 967 mM) in series [5] (organic solvent or mixture, Ethyl acetate); 5 to 9 mg/mL (≈ 21 to 37.9 mM) in series [5] (organic solvent or mixture, Heptane); 120 to 240 mg/mL (≈ 505 to 1010 mM) in series [5] (organic solvent or mixture, Methanol); over 288 mg/mL in series [5] (organic solvent or mixture, THF). This compound yielded a solubility in series [5] (Water) of under 1 mg/mL. In addition, the pH in series [4] (setting [9]) is recorded as 8.5; in series [4] (setting [10]) it was 7.1.
Turning to `CN[C@@]1(c2ccccc2Cl)CCCCC1=O.CN[C@@]1(c2ccccc2Cl)CCCCC1=O.O=C(O)/C=C/C(=O)O` [R-ketamine fumarate salt Form A], the solubility in series [6] (pH 5.23, r.t.) is 304 mg/mL; in series [6] (pH 6.14, r.t.) it was 15.1 mg/mL; in series [6] (pH 7.21, r.t.) it was 1.76 mg/mL; in series [7] (water) it was 17.7* mg/mL. Further, in series [6] (pure water, from approximate solubility tests), the “pH on dissolution in pure water” value is given as “about 5.7”. In addition, the “dependence of aqueous solubility on pH” value in series [6] (water adjusted to pH 5, 6, 7, one day at 25° C.) is recorded as “solubility rapidly deceases by increasing pH”. Besides, in series [7] (after 3 h), the “Initial pH” value is 4.1 (after 3 h). The “pH after 24 hours” value in series [7] was determined as 4.1. Further, in series [7] (water), the solubility in water entry is given as “higher than the solubility of the R-ketamine saccharin salt”. Moreover, the “reversibility of water sorption” value in series [1] (DVS) is “lost all its water when the humidity is scanned back to 0% r.h”. In addition, in series [1], the “solid form of the sample after DVS” value is given as “no change in the crystalline form was observed”.
For the compound `CN[C@@]1(c2ccccc2Cl)CCCCC1=O.O=C(O)/C=C/C(=O)O` [R-ketamine fumarate salt Form B], in series [2] (11 months, ambient condition), the “solid form after storage (PXRD)” value is “a mixture of the R-ketamine fumarate salt Form A and B (about 1:1)”.
With `CNC1(c2ccccc2Cl)CCCCC1=O.Cl` (centres unmarked) [R-ketamine hydrochloride salt, reference compound], the solubility result in series [4] (aqueous 20% (2-hydroxypropyl)-beta-cyclodextrin solution) was “*The solubility of the HCl R-ketamine salt was over 100 mg/mL in aqueous 20% (2-hydroxypropyl)-beta-cyclodextrin solution”.
Consider `CN[C@@]1(c2ccccc2Cl)CCCCC1=O.O=C(O)C(=O)O` [R-ketamine oxalate salt], for which, in series [7] (after 3 h), the “Initial pH” value was 5.6 (after 3 h). In addition, the “pH after 24 hours” value in series [7] came out at 5.7. In series [7] (water), the solubility is 19.2* mg/mL and the solubility in water entry is given as “higher than the solubility of the R-ketamine saccharin salt”. The “pH of the saturated solution” value in series [7] (water, after one day stirring, pH measured at 24° C.) is given as 5.7. Moreover, the hygroscopicity class entry in series [1] (DVS) is “very hygroscopic (very hygroscopic (mass increase of ≥15%))”. For the same compound, in series [1], the “solid form of the sample after DVS” value is listed as “dramatically loss of crystallinity was observed”.
Turning to `CN[C@@]1(c2ccccc2Cl)CCCCC1=O.O=C1NS(=O)(=O)c2ccccc21` [R-ketamine saccharin salt], the “Initial pH” value in series [7] (after 1 h) is listed as 4.2 (after 1 h). The “pH after 24 hours” value in series [7] worked out at 4.0. Further, the solubility in series [7] (water) is recorded as 6.64 mg/mL. Also, in series [7] (water), the solubility in water is given as 6.6 mg/mL. Besides, the “Approximate Solubility” value is 28~37 mg/mL in series [4] (20% (w/w) aqueous cyclodextrin) and 26~35 mg/mL in series [4] (20% (w/w) cyclodextrin in buffer pH 7 solution). In addition, the pH in series [4] (setting [9]) amounted to 5; in series [4] (setting [10]) it was 6.3. The hygroscopicity class entry in series [1] (DVS) is recorded as “non-hygroscopic (non-hygroscopic (mass increase <0.2%))”. Also, the “solid form of the sample after DVS” value in series [1] was “no change in the solid form was observed”.
